Experiments:
Assay in all cases: relative viability (nuclei count vs DMSO), 5 days (fraction); higher = more cells survive
Irinotecan + Pemetrexed = compound: CCc1c2c(nc3ccc(OC(=O)N4CCC(N5CCCCC5)CC4)cc13)-c1cc3c(c(=O)n1C2)COC(=O)[C@]3(O)CC [Irinotecan] + Nc1nc2[nH]cc(CCc3ccc(C(=O)N[C@@H](CCC(=O)O)C(=O)O)cc3)c2c(=O)[nH]1 [Pemetrexed] (partner 0.2 µM)
Method in brief: (§1)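 Dosing by pin tool came one day after lung cancer cell lines were seeded in 1536-well plates, using either one drug or a fixed anchor-drug dose plus five library-drug doses (not always all listed) in √10 steps. After 5 days, nuclei were counted on 4× images. Relative viability is treated-well nuclei count divided by vehicle-well nuclei count, and values are medians of duplicate plates.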

RU-SKI 43 + Olaparib = compound: CC[C@@H](C)CNCC(=O)N1CCC2=C([C@@H]1COC3=CC=CC(=C3)C)C=CS2 [RU-SKI 43] + O=C(c1cc(Cc2n[nH]c(=O)c3ccccc23)ccc1F)N1CCN(C(=O)C2CC2)CC1 [Olaparib] (partner 8 µM)
Method in brief: as §1

Irinotecan + Olaparib = compound: CCc1c2c(nc3ccc(OC(=O)N4CCC(N5CCCCC5)CC4)cc13)-c1cc3c(c(=O)n1C2)COC(=O)[C@]3(O)CC [Irinotecan] + O=C(c1cc(Cc2n[nH]c(=O)c3ccccc23)ccc1F)N1CCN(C(=O)C2CC2)CC1 [Olaparib] (partner 8 µM)
Method in brief: as §1

Irinotecan + Phenformin = compound: CCc1c2c(nc3ccc(OC(=O)N4CCC(N5CCCCC5)CC4)cc13)-c1cc3c(c(=O)n1C2)COC(=O)[C@]3(O)CC [Irinotecan] + N=C(N)NC(=N)NCCc1ccccc1 [Phenformin] (partner 250 µM)
Method in brief: as §1

| Cell Line | relative viability (Irinotecan + Pemetrexed; first compound 0.6325 µM) | relative viability (Irinotecan + Pemetrexed; first compound 2 µM) | relative viability (Irinotecan + Pemetrexed; first compound 6.325 µM) | relative viability (Irinotecan + Pemetrexed; first compound 20 µM) | relative viability (RU-SKI 43 + Olaparib; first compound 0.1 µM) | relative viability (RU-SKI 43 + Olaparib; first compound 0.3162 µM) | relative viability (RU-SKI 43 + Olaparib; first compound 1 µM) | relative viability (RU-SKI 43 + Olaparib; first compound 3.162 µM) | relative viability (RU-SKI 43 + Olaparib; first compound 10 µM) | relative viability (Irinotecan + Olaparib; first compound 0.6325 µM) | relative viability (Irinotecan + Olaparib; first compound 2 µM) | relative viability (Irinotecan + Olaparib; first compound 6.325 µM) | relative viability (Irinotecan + Olaparib; first compound 20 µM) | relative viability (Irinotecan + Phenformin; first compound 0.6325 µM) | relative viability (Irinotecan + Phenformin; first compound 2 µM) | relative viability (Irinotecan + Phenformin; first compound 6.325 µM) | relative viability (Irinotecan + Phenformin; first compound 20 µM) |
| --- | --- | --- | --- | --- | --- | --- | --- | --- | --- | --- | --- | --- | --- | --- | --- | --- | --- |
| ChaGo-K-1 | 0.238 | 0.232 | 0.236 | 0.239 | 0.391 | 0.446 | 0.413 | 0.403 | 0.383 | 0.223 | 0.267 | 0.245 | 0.221 | 0.413 | 0.352 | 0.191 | 0.218 |
| LXF-289 | 0.733 | 0.854 | 0.54 | 0.212 | 1.09 | 1.09 | 1.17 | 1.16 | 0.948 | 0.211 | 0.215 | 0.162 | 0.158 | 0.5 | 0.46 | 0.262 | 0.162 |
| HCC-827 | 0.264 | 0.236 | 0.248 | 0.206 | 0.614 | 0.733 | 0.659 | 0.72 | 0.669 | 0.379 | 0.236 | 0.212 | 0.165 | 0.345 | 0.349 | 0.159 | 0.209 |
| HCC-44 | 0.617 | 0.721 | 0.549 | 0.488 | 0.984 | 0.981 | 1.06 | 1.06 | 0.954 | 0.754 | 0.423 | 0.378 | 0.425 | – | 0.251 | 0.147 | 0.211 |
| NCI-H2023 | 0.256 | 0.2 | 0.156 | 0.0599 | 0.457 | 0.478 | 0.44 | 0.416 | 0.526 | 0.302 | 0.225 | 0.14 | 0.073 | 0.415 | 0.391 | 0.178 | 0.0825 |
| NCI-H1734 | – | 0.385 | 0.222 | 0.141 | 0.559 | 0.661 | 0.656 | 0.589 | 0.591 | – | 0.184 | 0.143 | 0.179 | – | 0.357 | 0.244 | 0.17 |
| PC-14 | 0.155 | 0.175 | 0.136 | 0.111 | 0.22 | 0.174 | 0.294 | 0.263 | 0.401 | 0.129 | 0.163 | 0.167 | 0.123 | – | 0.661 | 0.242 | 0.155 |
| NCI-H3122 | 0.205 | 0.202 | 0.139 | 0.14 | 0.623 | 0.64 | 0.663 | 0.649 | 0.579 | 0.217 | 0.201 | 0.16 | 0.14 | 0.364 | 0.341 | 0.235 | 0.088 |
| SW 1573 | – | 0.553 | 0.176 | 0.0829 | 0.442 | 0.479 | 0.51 | 0.435 | 0.41 | 0.267 | 0.239 | 0.157 | 0.121 | 0.32 | 0.425 | 0.248 | 0.146 |
| NCI-H2342 | 0.452 | 0.807 | 0.845 | 0.461 | 0.387 | – | 0.44 | 0.428 | 0.358 | 0.412 | 0.386 | 0.352 | 0.384 | 0.614 | 0.59 | 0.554 | 0.418 |
| HCC-15 | 0.18 | 0.188 | 0.207 | 0.189 | 0.71 | 0.874 | 0.755 | 0.772 | 0.627 | 0.213 | 0.279 | 0.202 | 0.146 | – | 0.331 | 0.183 | 0.12 |
| NCI-H1666 | 0.762 | 0.766 | 0.676 | 0.63 | 0.691 | 0.681 | 0.773 | 0.741 | 0.743 | 0.672 | 0.726 | 0.654 | 0.671 | 0.511 | 0.529 | 0.425 | 0.424 |
| NCI-H460 | 0.0679 | 0.093 | 0.0699 | 0.0601 | 0.389 | 0.702 | 0.47 | 0.49 | 0.334 | – | 0.214 | 0.0942 | 0.125 | 0.21 | 0.272 | 0.0796 | 0.0368 |
| NCI-H1792 | 0.507 | 0.823 | 0.188 | 0.282 | 0.301 | 0.472 | 0.474 | 0.385 | 0.281 | 0.332 | 0.327 | 0.198 | 0.298 | 0.273 | 0.424 | 0.314 | 0.28 |
| NCI-H2087 | 0.489 | 0.197 | 0.172 | 0.195 | 0.481 | 0.63 | 0.669 | 0.616 | 0.559 | 0.175 | 0.196 | 0.154 | 0.173 | 0.218 | 0.341 | 0.192 | 0.176 |
| EKVX | – | 0.339 | 0.246 | 0.205 | 0.716 | 0.971 | 0.866 | 1.04 | 0.849 | – | 0.539 | 0.275 | 0.224 | 0.216 | 0.185 | 0.224 | 0.151 |
| IA-LM | – | – | – | – | 0.877 | 0.87 | 0.976 | 0.732 | 0.812 | 0.537 | 0.177 | 0.166 | 0.0811 | – | – | – | – |
| NCI-H1355 | – | 0.968 | 0.656 | 0.319 | 0.742 | 0.72 | 0.724 | 0.797 | 0.775 | – | 0.321 | 0.278 | 0.209 | – | 0.46 | 0.278 | 0.248 |
| NCI-H661 | 0.886 | 0.653 | 0.41 | 0.232 | 0.763 | 0.976 | 0.718 | 0.786 | 0.665 | 0.583 | 0.556 | 0.396 | 0.233 | 0.254 | 0.329 | 0.277 | 0.191 |
| NCI-H1703 | – | – | – | – | 0.439 | 0.456 | 0.407 | 0.452 | 0.248 | 0.512 | 0.375 | 0.169 | 0.164 | – | – | – | – |
| NCI-H1299 | – | – | – | – | 0.948 | 0.995 | 1.04 | 0.99 | 0.959 | 0.539 | 0.478 | 0.337 | 0.207 | – | – | – | – |
